Experimental data published in paper PMC10790229 (Journal of medicinal chemistry, 2023).

Key:
HIV-1 IIIB = experiment: Anti-HIV-1 activity in MT-4 cells; type: cell-based; details: HIV-1 IIIB, MT-4 cells
HIV-2 ROD = experiment: Anti-HIV-2 activity in MT-4 cells; type: cell-based
[1] = Cytotoxicity in uninfected MT-4 cells; type: cell-based; details: human
[2] = molecular target: monomeric HIV-1 CA NL4.3 protein (Human immunodeficiency virus type 1 group M subtype B, UniProt P12493); experiment: SPR binding to monomeric HIV-1 CA; details: SPR, CA monomer
[3] = molecular target: hexameric HIV-1 CA NL4.3 protein (Human immunodeficiency virus type 1, UniProt P12493); experiment: SPR binding to disulfide-stabilized hexameric HIV-1 CA; details: CA hexamer
HIV-1 = details: read-out: EC50 antiviral activity; MT-4 cells; cited from earlier work
in vitro = details: human, microsomes
[4] = Metabolic stability in human liver microsomes

Row | Structure (SMILES) | SI IIIB (CC50/EC50) (HIV-1 IIIB) | SI ROD (CC50/EC50) (HIV-2 ROD; HIV-2 ROD, MT-4 cells) | EC50 (HIV-2 ROD; Human immunodeficiency virus 2, MT4, read-out: EC50 ROD) | CC50 [1] | Residence Time Monomer [2] | Residence Time Hexamer [3] | EC50 (HIV-1) | CLint scaled at 1 h, 1 µM (in vitro) | remaining at 1 h, 1 µM [4]
1 | COc1ccc(N(C)C(=O)[C@H](Cc2ccccc2)NC(=O)Cc2c(C)[nH]c3ccccc23)cc1 [PF74, reference compound] | >367.65 | >77.64 | 3.78 ± 0.38 µM | > 294 µM | 0.011 min | 0.463 min | 870 nM | 1900 mL/min/kg | 
2 | C[C@]12CC[C@H]3[C@@H](CCC4=CC(=O)CC[C@@]43C)[C@@H]1CC[C@@H]2O [Testosterone, testosterone] |  |  |  |  |  |  |  |  | 95.8%
